According to patent US20220249426A1, “INHIBITORS OF THE STING PATHWAY FOR THE TREATMENT OF HIDRADENITIS SUPPURATIVA” (INSERM (INSTITUT NATIONAL DE LA SANTÉ ET DE LA RECHERCH …, priority 2019, published 2022):

How the values were obtained:
Assay type in all cases: cell-based, human
[1] = tested on: HS-ORS cells; assay: IFN-β and ISG mRNA quantification after siRNA transfection of HS-ORS cells; conditions: compared to scramble siRNA
Description: (§1) FIG. 1: IFI16-STING pathway induces interferon (IFN) production in outer root sheath (ORS) cells from patients with hidradenitis suppurativa (HS). (A) Relative mRNA levels of IFN-β and IP10 in HS-ORS and HD-ORS cells. **P<0.01; ns, nonsignificant; Mann-Whitney rank-sum test. (B) Nonparametric Spearman correlation analysis of the expression of IFN-β genes and percentage of cells in phase S in HS-ORS cell populations. (C) Levels of IFN-β mRNA in HS-ORS (n=10) and HD-ORS (n=4) cell populations transfected with siSTING for 2 days before IFN-β mRNA quantification. (D) IFN-β mRNA levels in HS-ORS cell populations (n=3) transfected with siRNA-cGAS or siRNA-IFI16 for 2 days before IFN-β mRNA quantification. (E) DNA fiber spreading analysis of fork progression in HS-ORS cell populations (n=2) transfected with siSTING for 2 days before DNA fiber spreading. ****P<0.0001, Mann-Whitney rank-sum test. […] Quantification of phospho-IRF3 signal intensity in HS-ORS (n=7) and HD (n=5). […]
(§2) ORS cells were lysed with RLT Plus Buffer (Qiagen). The RNA was extracted using the RNeasy Plus Mini Kit (Qiagen) according to the manufacturer's protocol then converted into cDNA using the QuantiTect Reverse Transcription Kit (Qiagen) for IFNβ detection and the High-Capacity cDNA Reverse Transcription Kit (Applied Biosystems, Thermo Fisher Scientific) for the expression of other genes. […]

[2] = tested on: HD-ORS cells; assay: IFN-β and ISG mRNA quantification after siRNA transfection of HD-ORS cells; conditions: compared to scramble siRNA
Description: as §1, §2

[3] = tested on: HS-ORS; assay: Western blot analysis (phospho-IRF3, cGAS protein) after siRNA transfection of HS-ORS; conditions: compared to scramble siRNA
Description: (§3) FIG. 1: IFI16-STING pathway induces interferon (IFN) production in outer root sheath (ORS) cells from patients with hidradenitis suppurativa (HS). (A) Relative mRNA levels of IFN-β and IP10 in HS-ORS and HD-ORS cells. **P<0.01; ns, nonsignificant; Mann-Whitney rank-sum test. (B) Nonparametric Spearman correlation analysis of the expression of IFN-β genes and percentage of cells in phase S in HS-ORS cell populations. (C) Levels of IFN-β mRNA in HS-ORS (n=10) and HD-ORS (n=4) cell populations transfected with siSTING for 2 days before IFN-β mRNA quantification. (D) IFN-β mRNA levels in HS-ORS cell populations (n=3) transfected with siRNA-cGAS or siRNA-IFI16 for 2 days before IFN-β mRNA quantification. (E) DNA fiber spreading analysis of fork progression in HS-ORS cell populations (n=2) transfected with siSTING for 2 days before DNA fiber spreading. ****P<0.0001, Mann-Whitney rank-sum test. (F) Western blot analysis of the levels of phospho-IRF3 in ORS transfected with siSTING or siCtrl. Quantification of phospho-IRF3 signal intensity in HS-ORS (n=7) and HD (n=5).
(§4) The following siRNAs were used: siSTING (CUGCAUCCAUCCAUCCCGUdTdT; SEQ ID NO:1, Sigma #Hs01_00031038, Sigma, St Louis, […].), siIFI16 (L-020004-00-0005, ON-TARGETplus Human IFI16 siRNA SMARTpool, Horizon Discovery, Waterbeach, UK), and sicGAS (L-015607-02-0005, ON-TARGETplus Human MB21D1 siRNA SMARTpool, Horizon Discovery). […]

[4] = tested on: HD-ORS; assay: Western blot analysis of phospho-IRF3 after siRNA transfection of HD-ORS; conditions: compared to scramble siRNA
Description: as §3, §4

[5] = tested on: HS-ORS cell populations; assay: DNA fiber spreading analysis of fork progression after siSTING transfection; conditions: both HS-ORS cell populations (n=2); siSTING for 2 days before DNA fiber spreading
Description: as §1
DNA fiber spreading was performed as described by Jackson and Pombo (16). […] The DNA fiber images thus acquired were analyzed using MetaMorph Microscopy Automation and Image Analysis Software (Molecular Devices, San Jose, Calif.) and the results were evaluated statistically by applying the two-sided Mann-Whitney rank-sum test with GraphPad Prism software (GraphPad, La Jolla, Calif.).

[6] = tested on: HS-ORS; assay: mRNA quantification of ISGs in HS-ORS treated with drugs targeting the IFN pathway; conditions: compared to ORS treated with DMSO
Description: FIG. 2: Outer root sheath (ORS) cells from two patients were treated with two drugs (A. Ruxolitinib B. H151) targeting the interferon (IFN) pathway. mRNA levels of MX1, IP10, IFI27 and OAS1 in ORS. HS-ORS (n=2) were treated with two drugs during 24 hours before performing mRNA quantification.
ORS cells were lysed with RLT Plus Buffer (Qiagen). The RNA was extracted using the RNeasy Plus Mini Kit (Qiagen) according to the manufacturer's protocol then converted into cDNA using the QuantiTect Reverse Transcription Kit (Qiagen) for IFNβ detection and the High-Capacity cDNA Reverse Transcription Kit (Applied Biosystems, Thermo Fisher Scientific) for the expression of other genes.
For real-time PCR analysis of the cDNA samples thus obtained, we prepared custom-made primer sets using the Brilliant II SYBR green QPCR master mix (Agilent Technologies) or Quantitect SYBR Green PCR Kit (Qiagen) according to the manufacturers' protocols. Real-time PCR was performed on a MX3000P device (Agilent). The GAPDH or OAZ1 mRNA level was used for normalization. The relative expression (ΔCt) of mRNAs of each gene was computed using GAPDH or OAZ-1 expression as the reference.
We used two drugs targeting IFN pathway. HS-ORS (n=2) were treated with drugs during 24 hours before performing mRNA quantification. Four ISGs: MX1, OAS1, IFI27 and IP10 were analyzed.

[7] = first patient, ORS treated 24 hours

Compound	IFN-β transcript levels ([1]; HS-ORS cells, siRNA 10 μM, 2 days)	ISGs transcripts (OAS1 and IP-10) ([1]; ORS from HS patients)	IFN-β transcript levels ([2]; HD-ORS cells, siRNA 10 μM, 2 days)	ISGs transcripts (OAS1 and IP-10) ([2]; ORS from HD)	IRF3 phosphorylation at Ser396 (pIRF3) [3]	IRF3 phosphorylation at Ser396 (pIRF3) [4]	IdU track length [5]	levels of IFI27 transcripts ([6]; HS-ORS (n=2), 24 hours)	levels of IP10 transcripts ([6]; HS-ORS (n=2), 24 hours)	levels of MX1 transcripts ([6]; HS-ORS (n=2), 24 hours)	levels of OAS1 transcripts ([6]; HS-ORS (n=2), 24 hours)	levels of IFI27 transcripts [6, 7]	levels of IP10 transcripts [6, 7]	levels of MX1 transcripts [6, 7]	levels of OAS1 transcripts [6, 7]
siSTING: siRNA CUGCAUCCAUCCAUCCCGUdTdT; SEQ ID NO:1, Sigma #Hs01_00031038 (sense CUGCAUCCAUCCAUCCCGUTT; dTdT overhang, further chemistry not given here)	lower	decrease	not associated with a difference	no change	inhibition	no modification	decreased to the length observed in HD-ORS cells	–	–	–	–	–	–	–	–
CCc1ccc(NC(=O)Nc2c[nH]c3ccccc23)cc1 [H151, N-(4-Ethylphenyl)-N′-1H-indol-3-yl-urea]	–	–	–	–	–	–	–	reduced levels	reduced levels	reduced levels	reduced levels	reduced levels	reduced levels	reduced levels	reduced levels
